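Test compounds were applied to cells in 96-well plates for 48 hours at 5 doses. TGI denotes the concentration required for complete inhibition of growth.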
Columns and labels:
Test in all cases: NCI anticancer screen, dose series, 48 h
[1] = test system: OVCAR-5 ovarian
[2] = test system: HS 578T breast
[3] = test system: K-562 leukemia
[4] = test system: EKVX NSCLC
[5] = test system: IGROV1 ovarian
[6] = test system: LOX IMVI melanoma
[7] = test system: MDA-N
[8] = test system: SR leukemia
[9] = test system: UO-31 renal
[10] = test system: ACHN renal
[11] = test system: A498 renal
[12] = test system: M14 melanoma
[13] = test system: OVCAR-8 ovarian
[14] = test system: CAKI-1 renal
[15] = test system: NCI-H226 lung
[16] = test system: SK-MEL-28 melanoma
[17] = test system: MOLT-4 leukemia
[18] = test system: SN12C renal
[19] = test system: T-47D breast
[20] = test system: SK-OV-3 ovarian

Cc1cc2nc(C=C(C(F)(F)F)C(F)(F)F)sc2cc1C
TGI [1]: 8.66 µM | TGI [2]: 9.69 µM | TGI [3]: > 100 µM | TGI [4]: 7.27 µM | TGI [5]: 7.78 µM | TGI [6]: 4.99 µM | TGI [7]: > 19.8 µM | TGI [8]: 13.2 µM | TGI [9]: 7.17 µM | TGI [10]: 7.48 µM | TGI [11]: 28.5 µM | TGI [12]: 3.31 µM | TGI [13]: 4.4 µM | TGI [14]: 8.24 µM | TGI [15]: 6.79 µM | TGI [16]: 14.5 µM | TGI [17]: > 100 µM | TGI [18]: 1.63 µM | TGI [19]: 1.78 µM | TGI [20]: 32.7 µM

COc1ccc2c(C)c(Oc3c(Cl)c(Cl)c(O)c(C#N)c3C#N)oc2c1
TGI [1]: > 100 µM | TGI [2]: > 100 µM | TGI [3]: > 100 µM | TGI [4]: > 100 µM | TGI [5]: > 100 µM | TGI [6]: > 100 µM | TGI [7]: > 100 µM | TGI [8]: > 100 µM | TGI [9]: > 100 µM | TGI [10]: > 100 µM | TGI [11]: > 100 µM | TGI [12]: > 100 µM | TGI [13]: > 100 µM | TGI [14]: > 100 µM | TGI [15]: > 100 µM | TGI [16]: > 100 µM | TGI [17]: > 100 µM | TGI [18]: > 100 µM | TGI [19]: > 100 µM | TGI [20]: > 100 µM

COC(=O)c1ccccc1CC1Cc2cc3c(cc2C1=O)CCC3 (stereo not given)
TGI [1]: > 90.8 µM | TGI [2]: 86.6 µM | TGI [3]: 44.5 µM | TGI [4]: > 100 µM | TGI [5]: > 100 µM | TGI [6]: 31.1 µM | TGI [7]: 10.7 µM | TGI [8]: > 69 µM | TGI [9]: 86.3 µM | TGI [10]: > 100 µM | TGI [11]: > 61.1 µM | TGI [12]: 44.5 µM | TGI [13]: > 80.8 µM | TGI [14]: > 100 µM | TGI [15]: 63.7 µM | TGI [16]: > 100 µM | TGI [17]: 33.9 µM | TGI [18]: > 67.2 µM | TGI [19]: 69.9 µM | TGI [20]: > 71.8 µM

O=C1OC(C2Cc3ccc4c(c3C2=O)CCC4)c2ccccc21 (stereo not given)
TGI [1]: > 100 µM | TGI [2]: > 100 µM | TGI [3]: > 100 µM | TGI [4]: > 100 µM | TGI [5]: > 100 µM | TGI [6]: > 100 µM | TGI [7]: > 100 µM | TGI [8]: > 100 µM | TGI [9]: > 100 µM | TGI [10]: > 100 µM | TGI [11]: > 100 µM | TGI [12]: > 100 µM | TGI [13]: > 100 µM | TGI [14]: > 100 µM | TGI [15]: 83.6 µM | TGI [16]: > 100 µM | TGI [17]: > 100 µM | TGI [18]: > 100 µM | TGI [19]: > 100 µM | TGI [20]: > 100 µM

COc1ccc2c(c1)-c1c(c3cc(OC)ccc3n1CCCN(C)C)CC2
TGI [1]: 28.4 µM | TGI [2]: 20.5 µM | TGI [3]: 13.2 µM | TGI [4]: 31.4 µM | TGI [5]: > 36.2 µM | TGI [6]: 20.9 µM | TGI [7]: 16 µM | TGI [8]: 22.1 µM | TGI [9]: 26.7 µM | TGI [10]: 35.9 µM | TGI [11]: 31.3 µM | TGI [12]: 4.8 µM | TGI [13]: 30.7 µM | TGI [14]: 28.1 µM | TGI [15]: 6.82 µM | TGI [16]: 13 µM | TGI [17]: 30.9 µM | TGI [18]: 28.5 µM | TGI [19]: 24.8 µM | TGI [20]: 32.7 µM

O=c1[nH]c(N/N=C\C(=N/Nc2nc3ccccc3c(=O)[nH]2)C(O)C(O)C(O)CO)nc2ccccc12 (stereo not given)
TGI [1]: > 100 µM | TGI [2]: > 100 µM | TGI [3]: > 100 µM | TGI [4]: > 100 µM | TGI [5]: > 100 µM | TGI [6]: > 100 µM | TGI [7]: > 100 µM | TGI [8]: > 100 µM | TGI [9]: > 100 µM | TGI [10]: > 100 µM | TGI [11]: > 100 µM | TGI [12]: > 100 µM | TGI [13]: > 100 µM | TGI [14]: > 100 µM | TGI [15]: > 100 µM | TGI [16]: > 100 µM | TGI [17]: > 100 µM | TGI [18]: > 100 µM | TGI [19]: > 100 µM | TGI [20]: > 100 µM

COc1cc2c(c(O)c1OC)C(=O)[C@@H]1CCC(=O)N1C2c1ccccc1 (stereo not given in full)
TGI [1]: > 100 µM | TGI [2]: > 100 µM | TGI [3]: > 100 µM | TGI [4]: > 100 µM | TGI [5]: > 100 µM | TGI [6]: > 100 µM | TGI [7]: > 100 µM | TGI [8]: > 100 µM | TGI [9]: > 100 µM | TGI [10]: > 100 µM | TGI [11]: > 100 µM | TGI [12]: > 100 µM | TGI [13]: > 100 µM | TGI [14]: > 100 µM | TGI [15]: > 100 µM | TGI [16]: > 100 µM | TGI [17]: > 100 µM | TGI [18]: > 100 µM | TGI [19]: > 100 µM | TGI [20]: > 100 µM

O=C1CSC(c2ccccc2)N1c1ccc(-n2c(-c3ccccc3)nc3ccccc3c2=O)cc1 (stereo not given)
TGI [1]: > 100 µM | TGI [2]: > 100 µM | TGI [3]: > 100 µM | TGI [4]: > 100 µM | TGI [5]: > 100 µM | TGI [6]: > 100 µM | TGI [7]: > 100 µM | TGI [8]: > 100 µM | TGI [9]: > 100 µM | TGI [10]: > 100 µM | TGI [11]: > 100 µM | TGI [12]: > 100 µM | TGI [13]: > 100 µM | TGI [14]: > 100 µM | TGI [15]: > 100 µM | TGI [16]: > 100 µM | TGI [17]: > 100 µM | TGI [18]: > 100 µM | TGI [19]: > 100 µM | TGI [20]: > 100 µM

Reference: PubChem BioAssay (NCI)
